Assay results from patent publication US8802675B2, “Neuroprotective multifunctional compounds and pharmaceutical compositions comprising them” (priority 2009, dated 2014).

Key:
[1] = molecular target: T1, rat brain cholinesterase (total ChE) (Rattus norvegicus, UniProt P37136); experiment: Kinetics of irreversible cholinesterase inhibition (Kitz-Wilson); format: biochemical; conditions: for kinact: pH 7.4, read-out: k+2 (carbamylation rate constant); for kinact/KI: pH 7.4, read-out: ki (second-order rate inhibition constant, approximated by k+2/Ki)
T1 construct: rows headed: Ki (dissociation constant for EI); other: rat brain total ChE; mean of 3-4 experiments; k+2 (carbamylation rate constant); other: from ki; rate of carba
T1 sequence (P37136 32-614): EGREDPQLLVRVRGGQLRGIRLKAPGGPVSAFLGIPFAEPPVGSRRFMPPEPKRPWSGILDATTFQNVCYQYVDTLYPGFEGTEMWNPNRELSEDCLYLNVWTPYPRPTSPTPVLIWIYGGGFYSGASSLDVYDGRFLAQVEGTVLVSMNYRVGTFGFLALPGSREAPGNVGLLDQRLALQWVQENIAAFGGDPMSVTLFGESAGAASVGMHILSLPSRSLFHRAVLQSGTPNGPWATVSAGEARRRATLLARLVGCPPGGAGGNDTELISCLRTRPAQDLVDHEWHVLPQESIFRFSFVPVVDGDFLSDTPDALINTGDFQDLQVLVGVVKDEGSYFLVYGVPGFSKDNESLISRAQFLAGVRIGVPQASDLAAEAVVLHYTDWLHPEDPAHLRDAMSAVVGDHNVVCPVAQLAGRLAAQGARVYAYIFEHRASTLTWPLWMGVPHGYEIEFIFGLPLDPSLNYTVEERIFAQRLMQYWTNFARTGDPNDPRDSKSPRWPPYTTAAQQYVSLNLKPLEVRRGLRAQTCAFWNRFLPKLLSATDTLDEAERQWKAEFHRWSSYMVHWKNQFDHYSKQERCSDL
Description: To determine kinetic constants of irreversible inhibition, cholinesterase from rat brain homogenates was incubated with the multifunctional compounds of the invention for designed time intervals in phosphate buffer pH 7.4.
The residual cholinesterase activity was immediately measured with the Ellman's colorimetric method after addition of 5,5′-dithiobis(2-nitrobenzoic) acid and 1 mM acetylthiocholine iodide. The inhibition kinetics were assessed according to Kitz-Wilson equation:
[formula] wherein: E represents the enzyme; I represents the intact carbamate (inhibitor); EI is the initial reversible enzyme complex; E* is the carbamylated enzyme; Ki represents the dissociation constant for EI; k+2 is the carbamylation rate constant and k+3 is the decarbamylation rate constant; kapp is the pseudo-first-order inhibition rate constant; ki, the second-order rate inhibition constant, is approximated by k+2/Ki. Under experimental condition [I]>>[E0].
According to equation (2), the logarithm of the ratio of the residual cholinesterase activity (E) and the initial cholinesterase activity (E0) is plotted against the time of incubation. The slopes of the lines representing kapp were determined by linear regression.
The slopes of the lines represent the pseudo-first-order inhibition rate constant (kapp) determined from linear regression analysis. […] The carbamylation rate constant (k+2) was obtained from the y-intercept, and the dissociation constant ([…] was obtained from the slope of the line multiplied by k+2 as described in Materials and Methods.
From these lines, the values of kapp were calculated based on Equation (2) of the Kitz-Wilson equations (see Material and Methods). […] The carbamylation rate constant k+2 is a measure of inactivation of ChE.

[2] = Metal chelation assay (UV-vis spectra of metal complexes); format: physicochemical; conditions: 5% NH4Ac, pH=7; for complexation with Cu^2+ or Zn^2+: CuSO4 or ZnCl2, UV-vis; for interaction with Fe: FeCl3 or FeSO4, absorbance at 300 nm
Source text: Metal chelation, particularly iron chelation, is an important precondition for the antioxidative-function of the multi-functional compounds of the invention, because it is the excessive iron stores and iron-mediated generation of free radicals in the brain that are thought to be associated with neurodegenerative diseases. The novel strategy, according to the present invention, for the treatment of neurodegenerative diseases such as Alzheimer's disease is the design of pro-chelators that inhibit AChE with a concomitant release of the active chelators. This novel strategy has advantages over the current chelator strategy since it is capable not only of minimizing the potential toxicity associated with strong chelators such as the 8-hydroxyquinoline derivatives disclosed in WO 2004/041151, which might interfere with healthy metal metabolism in the brain, but it also offers multiple activities against AChE, Aβ aggregation, oxidative stress, and metal (Fe, Cu, Zn) dyshomeostasis in the brain. Therefore, a metal chelation assay was used to confirm that the new multifunctional pro-chelators that comprise an N,N-dialkylcarbamoyl moiety [N(RR′)CO—] linked to the oxygen at position 8 of quinoline would have little to no affinity for metal ions in their pro-drug form. When these pro-chelators bind to cholinesterase or AChE in the brain, the N,N-dialkylcarbamoyl moiety is dissociated, thus unmasking a free hydroxyl group at said position 8 of quinoline, turning the pro-chelators into active chelators, which passivate excess cerebral metal ions and protect neuronal cells against reactive oxygen species (ROS).
A spectrophotometric method was used for measurement of metal complexes of the multifunctional pro-chelators of the invention with metal ions selected from Zn^2+, Cu^2+, Fe^3+ and Fe^2+, and compared to the respective metal complexes of some known iron chelators disclosed in WO 2004/041151.
Thus, the metal chelating function of compound 13 and compound 23 as compared to M30 and HLA20, respectively, was measured by dissolving 0.1 mM or 0.2 mM of the test compounds in 5% NH4Ac, pH=7, in the presence and absence of 0.1 mM or 0.2 mM of the metal salts […], CuSO4, FeCl3 and FeSO4, and measuring the UV-vis spectra (Hewlett-Packard 8450A diode array spectrophotometer) of the various metal complexes formed. The results for M30 and compound 13 are shown in FIGS. 1A and 1B, respectively.

Question: For C#CCC1CCN(Cc2ccc(OC(=O)N(C)C)c3ncccc23)CC1 [Compound 23, 5-((4-(propargyl)piperidin-1-yl)methyl)quinolin-8-yl dimethylcarbamate], which kinact [1] is on record?
Answer: 0.00233 s⁻¹

Question: What about the kinact/KI [1] of the same molecule?
Answer: 242 M⁻¹ s⁻¹

Question: And the “complexation with Cu^2+ or Zn^2+” value [2]?
Answer: little or no complexation

Question: And the “interaction with Fe” value [2]?
Answer: weak interaction

Question: For C#CCN(C)Cc1ccc(OC(=O)N(C)CC)c2ncccc12 [Compound 3, 5-((methyl(propargyl)amino)methyl)quinolin-8-yl ethyl(methyl)carbamate], which kinact [1] is on record?
Answer: 0.0045 s⁻¹

Question: And the kinact/KI [1]?
Answer: 39 M⁻¹ s⁻¹

Question: For C#CCN(C)Cc1ccc(OC(=O)N2CCN(Cc3ccccc3)CC2)c2ncccc12 [Compound 13, 5-((methyl(propargyl)amino)methyl)quinolin-8-yl 4-benzyl piperazine-1-carboxylate], which kinact [1] is on record?
Answer: 0.00167 s⁻¹

Question: And the kinact/KI [1]?
Answer: 168 M⁻¹ s⁻¹

Question: What about the “complexation with Cu^2+ or Zn^2+” value [2] of the same molecule?
Answer: little or no complexation

Question: And the “interaction with Fe” value [2]?
Answer: weak interaction

Question: With C#CCN(C)Cc1ccc(O)c2ncccc12 [M30, reference compound] as the molecule, how does the “binding of metal ions (shift of absorbance peak)” value ([2]; ZnCl2, CuSO4, FeCl3 and FeSO4) read?
Answer: binds the respective metal ions

Question: Which “potency in inhibiting ChE relative to rivastigmine” value ([1]; from ki) does the source give for C#CCN(C)Cc1ccc(OC(=O)N2CCCC2)c2ncccc12 [Compound 5, 5-((methyl(propargyl)amino)methyl)quinolin-8-yl pyrrolidine-1-carboxylate] here?
Answer: half potent

Question: What about the kinact [1] of the same molecule?
Answer: 0.00283 s⁻¹

Question: And the kinact/KI [1]?
Answer: 41 M⁻¹ s⁻¹
